Assay results from paper PMC10821532, “Sex and Cross-Sex Testosterone Treatment Alters Gamma-Hydroxybutyrate Acid Toxicokinetics and Toxicodynamics in Rats” (Pharmaceutics, 2024).
Like-named read-outs stand apart in the source and are kept apart here.

Experiment: GHB toxicokinetic study, i.v. bolus, plasma and urine up to 8 h, noncompartmental analysis
Assay type: in vivo, Sprague Dawley rats
Conditions: for clearance / CL renal: Sprague Dawley, rat, iv; for CL renal: read-out: CLR - Renal clearance
Method: Male and female Sprague Dawley (SD) rats, ovariectomized (OVX) females, and castrated (CST) males were obtained from Charles River (Wilmington, MA, USA) at 8 weeks of age. The animals were housed under controlled temperature and humidity with an artificial 12 h light/dark cycle, and food and water were available ad libitum. The animals were acclimatized for at least one week before experiments. Hormone treatment was conducted by implanting OVX female and CST male rats subcutaneously with 60-day release pellets containing 7.5 mg testosterone or corresponding placebo pellets (Innovative Research of America) at 10 weeks of age. After 21 days of hormone exposure, rats were utilized in toxicokinetic studies. Age-matched male and female rats were used as control groups. Female rats in the estrus stage were selected for the study. Estrus cycle stages of female rats were monitored daily by vaginal lavage smear, as described in previously published literature. The Institutional Animal Care and Use Committee (IACUC) at the University of the Pacific approved all experiments.
Jugular vein cannulas were surgically implanted under anesthesia with ketamine/xylazine. Cannulas were flushed daily with heparinized saline to maintain patency. Rats were allowed a minimum of 72 h for recovery from surgery before the experiments were conducted. GHB was administered intravenously as a 1000 mg/kg i.v. bolus or 1500 mg/kg iv bolus with or without AR-C155858 (1 mg/kg i.v. bolus) via a jugular vein cannula to the animals at 13 weeks of age (N = 5–7 per group). Rats were dosed in metabolic cages with ad libitum access to water to allow for the concurrent collection of blood and urine samples for up to 8 h. GHB was administered as a 300 mg/mL solution in sterile water, and the time of administration was considered as time 0. AR-C155858 was administered as a 1 mg/mL solution in 10% cyclodextrin in normal saline 5 min after GHB administration. Blood samples (200 μL) were taken from the jugular vein cannula at different time points: 5, 10, 20, 30, 60, 90, 120, 180, 240, 270, 300, and 330 min for 1000 mg/kg and 10, 30, 60, 90, 120, 180, 240, 270, 300, 330, 360, and 390/480 min for 1500 mg/kg bolus with or without AR-C155858. Plasma samples were separated by centrifugation and stored at −20 °C. Urine samples were collected at 120, 240, and 360 min for 1000 mg/kg and 120, 240, and 390/480 min for 1500 mg/kg bolus with or without AR-C155858 post-dose; the total urine volume was determined, and the samples were stored at −20 °C.
GHB in plasma and urine were quantified using a validated liquid chromatography/tandem mass spectrometry (LC/MS/MS) assay that was described previously. Briefly, for the preparation of plasma standards and quality controls (QCs), 5 μL of GHB-d6 and 5 μL of standard stock solution or QC stock solution were added to 45 μL of blank plasma. For each unknown plasma sample, 5 μL of GHB-d6 was added to 50 μL of plasma. Protein precipitation was then performed by the addition of 800 μL of acetonitrile with 0.1% formic acid, followed by centrifugation at 10,000 rpm for 20 min. 750 μL of the supernatant was transferred to a clean disposable glass tube and evaporated using a MultiVap Nitrogen Evaporator (Organomation, Berlin, MA, USA) under a nitrogen stream. Dried samples were reconstituted in 250 μL of 95:5 double-distilled water—acetonitrile with 0.1% acetic acid. For urine standards and QCs, 25 μL of blank urine, 5 μL of standard or QC stock solution, 5 μL of GHB-d6, and 465 μL of double-distilled water were mixed. For unknown urine samples, 25 μL of the sample was added to 5 μL of GHB-d6 and 470 μL of double-distilled water. The same LC/MS/MS method was used for GHB plasma and urine analyses. LC/MS/MS equipment consisted of an Agilent 1200 series UPLC consisting of an online degasser, binary pump, and autosampler (Agilent Technologies, Santa Clara, CA, USA) connected to a Agilent 6460 Triple Quad Mass Spectrometer. […]

[1] = 1000 mg/kg GHB iv, OVX testosterone rats
[2] = 1000 mg/kg GHB iv, intact female (estrus) rats
[3] = 1000 mg/kg GHB iv, intact male rats
[4] = 1500 mg/kg GHB + 1mg/kg AR-C 155858 iv, CST testosterone placebo rats
[5] = 1500 mg/kg GHB + 1mg/kg AR-C 155858 iv, CST testosterone rats
[6] = 1500 mg/kg GHB + 1mg/kg AR-C 155858 iv, OVX testosterone placebo rats
[7] = 1500 mg/kg GHB + 1mg/kg AR-C 155858 iv, OVX testosterone rats
[8] = 1500 mg/kg GHB + 1mg/kg AR-C 155858 iv, intact female (estrus) rats
[9] = 1500 mg/kg GHB + 1mg/kg AR-C 155858 iv, intact male rats
[10] = 1500 mg/kg GHB iv, CST testosterone placebo rats
[11] = 1500 mg/kg GHB iv, CST testosterone rats
[12] = 1500 mg/kg GHB iv, OVX testosterone placebo rats
[13] = 1500 mg/kg GHB iv, OVX testosterone rats
[14] = 1500 mg/kg GHB iv, intact female (estrus) rats
[15] = 1500 mg/kg GHB iv, intact male rats

O=C(O)CCCO [GHB, Γ-hydroxybutyric acid]
AUC - Area under the curve of plasma concentration versus time profile (1000 mg/kg GHB iv, CST testosterone placebo rats): 222 ± 40.7 mg·min/mL
AUC - Area under the curve of plasma concentration versus time profile (1000 mg/kg GHB iv, CST testosterone rats): 197 ± 35.5 mg·min/mL
AUC - Area under the curve of plasma concentration versus time profile (1000 mg/kg GHB iv, OVX testosterone placebo rats): 181 ± 10.6 mg·min/mL
AUC - Area under the curve of plasma concentration versus time profile [1]: 169 ± 25.9 mg·min/mL
CL - Total clearance [1]: 6.0 ± 0.8 mL/min/kg
AUC - Area under the curve of plasma concentration versus time profile [2]: 150 ± 16.6 mg·min/mL
fe – The fraction of drug eliminated from urine [2]: 0.39 ± 0.07
AUC - Area under the curve of plasma concentration versus time profile [3]: 224 ± 39.8 mg·min/mL
fe – The fraction of drug eliminated from urine [3]: 0.48 ± 0.06
AUC [4]: 195 ± 29.6 mg·min/mL
fe (fraction of drug eliminated in urine) [4]: 0.69 ± 0.13
AUC [5]: 207 ± 40.4 mg·min/mL
fe (fraction of drug eliminated in urine) [5]: 0.74 ± 0.03
AUC [6]: 162 ± 34.8 mg·min/mL
fe (fraction of drug eliminated in urine) [6]: 0.73 ± 0.05
AUC [7]: 163 ± 24.9 mg·min/mL
fe (fraction of drug eliminated in urine) [7]: 0.75 ± 0.09
AUC [8]: 184 ± 36.3 mg·min/mL
fe (fraction of drug eliminated in urine) [8]: 0.73 ± 0.07
AUC [9]: 185 ± 13.2 mg·min/mL
fe (fraction of drug eliminated in urine) [9]: 0.74 ± 0.03
AUC [10]: 309 ± 23.8 mg·min/mL
fe (fraction of drug eliminated in urine) [10]: 0.60 ± 0.05
AUC [11]: 496 ± 97.6 mg·min/mL
fe (fraction of drug eliminated in urine) [11]: 0.44 ± 0.09
AUC [12]: 271 ± 47.0 mg·min/mL
fe (fraction of drug eliminated in urine) [12]: 0.62 ± 0.08
AUC [13]: 290 ± 122.7 mg·min/mL
CL (total clearance) [13]: 6.1 ± 2.4 mL/min/kg
fe (fraction of drug eliminated in urine) [13]: 0.41 ± 0.09
AUC [14]: 336 ± 78.8 mg·min/mL
fe (fraction of drug eliminated in urine) [14]: 0.78 ± 0.12
AUC [15]: 343 ± 117.8 mg·min/mL
fe (fraction of drug eliminated in urine) [15]: 0.87 ± 0.07
clearance (both sexes, plasma, 1500 mg/kg, 1500 mg/kg GHB iv, animal groups other than testosterone-treated OVX rats, read-out: Metabolic clearance, other animal groups): < 2.2 mL/min/kg
CL renal (female, plasma and urine, 1000 mg/kg, 1000 mg/kg GHB iv, OVX testosterone placebo rats): 2.4 ± 0.1 mL/min/kg
clearance (female, plasma and urine, 1000 mg/kg, 1000 mg/kg GHB iv, OVX testosterone placebo rats, read-out: CLm – Metabolic clearance): 3.1 ± 0.3 mL/min/kg
CL renal (female, plasma and urine, 1000 mg/kg, 1000 mg/kg GHB iv, OVX testosterone rats): 2.4 ± 0.7 mL/min/kg
clearance (female, plasma and urine, 1000 mg/kg, 1000 mg/kg GHB iv, OVX testosterone rats, read-out: CLm – Metabolic clearance): 3.6 ± 0.6 mL/min/kg
CL renal (female, plasma and urine, 1000 mg/kg, 1000 mg/kg GHB iv, intact female (estrus) rats): 2.6 ± 0.5 mL/min/kg
